Laboratory results reported in PubChem BioAssay AID2060503 (Molecular Pharmacology Branch, DTP, NCI, 2025).

System: 817829-284-R-J1-PDC complex spheroids, viability
Assay: Anticancer human tumor 817829-284-R-J1-PDC patient-derived colon adenocarcinoma cell line growth inhibition [GQUAD]
Conditions: for IC50: curve of first compound; for viability, T/C: stronger effect = lower value
Source text: DNA G-quadruplex Stabilizer Agents in Combinations in Complex Spheroids
A high-throughput screen of multi-cell type tumor spheroids was designed to identify active combinations of DNA G-quadruplex stabilizer agents and targeted small molecules. Complex spheroids include a stromal component modeled by human endothelial cells (HUVEC) and fibroblasts modeled by human mesenchymal stem cells (MSCs). The concentration ranges selected for each drug and investigational agent were based upon clinically achievable concentrations if the clinical Cmax of the agent was known.
Compounds. The drugs and investigational agents: pidnarulex (CX-5461; NSC782164), APTO-253 (NSC789042), BRACO-19 (NSC847499), peposertib (NSC802822), ceralasertib (NSC780249), elimusertib (NSC800525), camonsertib (NSC841442), AZD-1390 (NSC803789), olaparib (NSC753686), talazoparib (NSC767125), ART-558 (NSC835418), sotorasib (NSC818433), MRTX-1133 (NSC836407), SN-38 (NSC673596), topotecan (NSC609699), etoposide (NSC141540), doxorubicin (NSC123127), gemcitabine (NSC613327), 5-fluorouracil (NSC19893), paclitaxel (NSC125973), vemurafenib (NSC761431), panobinostat (NSC761190), R-306465 (JNJ-16241199; NSC773264), adavosertib (NSC754352), TP-3654 (NSC805149), carboplatin (NSC241240), KSQ-4279 (NSC840948), and staurosporine (NSC755774) were obtained from the National Cancer Institute (NCI) Developmental Therapeutics Program Chemical Repository (34). The FDA-approved anticancer drug set is available from the NCI Developmental Therapeutics Program. […] The stock solutions were prepared in dimethyl sulfoxide (DMSO, Sigma-Aldrich, St. Louis, MO, cat. D2650) at 800-fold the tested concentration and stored at -70 degrees C prior to their use. All drugs and investigational agents were tested over a range starting from a high concentration at or near the clinical Cmax and decreasing in half-log increments. If the clinical Cmax for an agent had not been determined, the highest concentration tested was 10 microM.
2.3 Cell Culture. All cells were maintained in an incubator at 37 degrees C and 5% CO2 with 95% humidity. The PDC lines were cultured according to standard operating procedures established by the NCI PDMR. All PDCs were thawed and cultured in Matrigel-coated flasks prepared with a working solution of 1X Ham's F-12 nutrient mix, without supplementation (Invitrogen, cat. 11765054), 100 U/mL penicillin-streptomycin (Invitrogen, cat. 15140122), and 2.5% Matrigel (Corning Inc., cat. 354248) for the first three passages. The 857933-349-R-J2-PDC line was cultured in 6C/Colon 1B media, which includes advanced DMEM/F-12 (Thermo Fisher Scientific, cat. 12634028), 10 mM HEPES (Thermo Fisher Scientific, cat. 15630080), 1X GlutaMAX supplement (Thermo Fisher Scientific, cat. 35050061), 0.1 mg/mL primocin (InvivoGen, cat. ant-pm-2), 10% defined fetal bovine serum, heat inactivated (HyClone Laboratories Inc., cat. SH30070.03HI), 50% L-WRN conditioned media (ATCC, cat. CRL-3276), 1.25 mM N-Acetyl-L-cysteine (Sigma-Aldrich, cat. A9165), 10 mM nicotinamide (Sigma-Aldrich, cat. N0636), 1X B-27 supplement (Thermo Fisher Scientific, cat. 17504044), 1X N-2 supplement (Thermo Fisher Scientific, cat. 17502048), 10 microM Y-27632 dihydrochloride (Tocris Bioscience, cat. 1254), and 50 ng/mL human EGF recombinant protein (Thermo Fisher Scientific, cat. PHG0311). The 485176-168-R4-J1-PDC line was cultured in Panc media, which includes all 6C/Colon 1B media components plus 100 ng/mL human FGF-10 (Thermo Fisher Scientific, cat. 100-26), 500 nM SB-431542 (Selleckchem, cat. S1067), and gastrin (Tocris, cat. 3006).
[…]
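Note: spheroids exposed to agents for 7 days before readout.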
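Throughout, for viability, T/C: percent viability relative to DMSO vehicle control taken as 100%.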

SMILES: C#Cc1c(F)ccc2cc(O)cc(-c3ncc4c(N5CC6CCC(C5)N6)nc(OCC56CCCN5CC(F)C6)nc4c3F)c12 (configuration not stated) + CN(C)c1ccc(Nc2c3ccc(NC(=O)CCN4CCCC4)cc3nc3cc(NC(=O)CCN4CCCC4)ccc23)cc1
- IC50 (second compound 0.0316 µM): > 10 µM
- IC50 (second compound 0.1 µM): > 10 µM
- IC50 (second compound 0.316 µM): > 10 µM
- IC50 (second compound 1 µM): > 10 µM
- IC50 (second compound 3.16 µM): > 10 µM
- IC50 (second compound 10 µM): 4.69 µM
- viability, T/C (second compound 0.0316 µM, first compound 0.0316 µM): 120%
- viability, T/C (second compound 0.0316 µM, first compound 0.1 µM): 98.2%
- viability, T/C (second compound 0.0316 µM, first compound 0.316 µM): 96%
- viability, T/C (second compound 0.0316 µM, first compound 1 µM): 98.1%
- viability, T/C (second compound 0.0316 µM, first compound 3.16 µM): 117%
- viability, T/C (second compound 0.0316 µM, first compound 10 µM): 121%
- viability, T/C (second compound 0.1 µM, first compound 0.0316 µM): 95.5%
- viability, T/C (second compound 0.1 µM, first compound 0.1 µM): 106%
- viability, T/C (second compound 0.1 µM, first compound 0.316 µM): 95.8%
- viability, T/C (second compound 0.1 µM, first compound 1 µM): 98.4%
- viability, T/C (second compound 0.1 µM, first compound 3.16 µM): 114%
- viability, T/C (second compound 0.1 µM, first compound 10 µM): 116%
- viability, T/C (second compound 0.316 µM, first compound 0.0316 µM): 111%
- viability, T/C (second compound 0.316 µM, first compound 0.1 µM): 105%
- viability, T/C (second compound 0.316 µM, first compound 0.316 µM): 97.9%
- viability, T/C (second compound 0.316 µM, first compound 1 µM): 106%
- viability, T/C (second compound 0.316 µM, first compound 3.16 µM): 101%
- viability, T/C (second compound 0.316 µM, first compound 10 µM): 118%
- viability, T/C (second compound 1 µM, first compound 0.0316 µM): 96.1%
- viability, T/C (second compound 1 µM, first compound 0.1 µM): 97%
- viability, T/C (second compound 1 µM, first compound 0.316 µM): 113%
- viability, T/C (second compound 1 µM, first compound 1 µM): 97.8%
- viability, T/C (second compound 1 µM, first compound 3.16 µM): 105%
- viability, T/C (second compound 1 µM, first compound 10 µM): 105%
- viability, T/C (second compound 3.16 µM, first compound 0.0316 µM): 107%
- viability, T/C (second compound 3.16 µM, first compound 0.1 µM): 112%
- viability, T/C (second compound 3.16 µM, first compound 0.316 µM): 102%
- viability, T/C (second compound 3.16 µM, first compound 1 µM): 110%
- viability, T/C (second compound 3.16 µM, first compound 3.16 µM): 117%
- viability, T/C (second compound 3.16 µM, first compound 10 µM): 101%
- viability, T/C (second compound 10 µM, first compound 0.0316 µM): 107%
- viability, T/C (second compound 10 µM, first compound 0.1 µM): 116%
- viability, T/C (second compound 10 µM, first compound 0.316 µM): 87.4%
- viability, T/C (second compound 10 µM, first compound 1 µM): 94%
- viability, T/C (second compound 10 µM, first compound 3.16 µM): 61.5%
- viability, T/C (second compound 10 µM, first compound 10 µM): 24.5%
